Results published in patent EP0021229A1, “Arylazo compounds, their preparation and their use” (priority 1979, dated 1981).

Target: T1, prostaglandin-15-dehydrogenase (Homo sapiens, UniProt P15428)
T1 construct: from tissue
T1 sequence (P15428 1-266): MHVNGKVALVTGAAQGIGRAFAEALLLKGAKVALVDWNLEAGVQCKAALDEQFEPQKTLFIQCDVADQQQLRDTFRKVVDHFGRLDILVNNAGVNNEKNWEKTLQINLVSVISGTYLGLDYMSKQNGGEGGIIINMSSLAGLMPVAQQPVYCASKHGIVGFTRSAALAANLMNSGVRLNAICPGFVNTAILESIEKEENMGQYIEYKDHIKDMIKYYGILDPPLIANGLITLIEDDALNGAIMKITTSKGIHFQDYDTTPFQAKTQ
Assay: Inhibition of prostaglandin F2a inactivation in cell-free organ preparations (Hoult and Moore)
Format: biochemical
Conditions: in vitro, radioactive prostaglandin F2a incubated with cellfree preparations of different organs; compared to sulfasalazine (compound A)
Protocol: Radioactive prostaglandin F2a was incubated with cellfree preparations of different organs (containing prostaglandin-15-dehydrogenase) according to Hoult and Moore, British Journal of Pharmacology, Vol. 61 (1977), p. 615. After a suitable time the prostaglandins were extracted and separated by chromatography. Then the amount of remaining prostaglandin F 2a was compared with the amounts of metabolites. The inhibiting effect was obtained by the addition of the compounds according to the invention during the incubation and comparison with control experiments without such addition. The results may be represented either as a concentration giving 50% inhibition of the prostaglandin inactivation, or as an inhibition in per cen at a certain concentration of the studied compound. In the following table the results for some compounds according to the invention are shown compared to the known drug sulfasalazine.

Row | activity (inhibition of the prostaglandin inactivation) relative to the known compound A [times] | SMILES | activity (inhibition of the prostaglandin inactivation) compared with compound A, in words
1 | 50 | O=C(O)Cc1cc(N=Nc2ccc(S(=O)(=O)Nc3ccccn3)cc2)ccc1O [compound B] | 
2 |  | O=C(O)Cc1cc(N=Nc2ccccc2)ccc1O [C, 2-hydroxy-5-phenylazo-benzeneacetic acid] | significantly more active than compound A
